Data taken from patent US20220169598A1, “HALOGENATED PHENYLSULFONAMIDE HYDROXAMIC ACID COMPOUNDS, COMPOSITIONS AND USES THEREOF AS SELECTIVE HDAC6 INHIBITORS” (2681603 ONTARIO INC., priority 2019, published 2022).
Like-named read-outs stand apart in the source and are kept apart here. Blank lines part the entries; values can stand above or below the compound they belong to.

Legend:
[1] = system: MOLM-13; test: Cytotoxicity in cell lines; format: cell-based; conditions: Homo sapiens, MOLM-13, read-out: IC50 MOLM-13
Protocol: (§1) The cytotoxicity of exemplary compounds of the application was tested in multiple cell lines including MV-4-11, MOLM-13, MCF-7, MRC9, K562 and MM.1S. The therapeutic index was evaluated by determining the toxicity of the exemplary compounds in healthy cell lines including fibroblasts and HUVEC.

[2] = target: T1, HDAC6 (Homo sapiens, UniProt Q9UBN7); test: in vitro activity-based HDAC assay; format: biochemical; conditions: ranges given; read-out: IC50 for HDAC6
T1 sequence (Q9UBN7 1-1215): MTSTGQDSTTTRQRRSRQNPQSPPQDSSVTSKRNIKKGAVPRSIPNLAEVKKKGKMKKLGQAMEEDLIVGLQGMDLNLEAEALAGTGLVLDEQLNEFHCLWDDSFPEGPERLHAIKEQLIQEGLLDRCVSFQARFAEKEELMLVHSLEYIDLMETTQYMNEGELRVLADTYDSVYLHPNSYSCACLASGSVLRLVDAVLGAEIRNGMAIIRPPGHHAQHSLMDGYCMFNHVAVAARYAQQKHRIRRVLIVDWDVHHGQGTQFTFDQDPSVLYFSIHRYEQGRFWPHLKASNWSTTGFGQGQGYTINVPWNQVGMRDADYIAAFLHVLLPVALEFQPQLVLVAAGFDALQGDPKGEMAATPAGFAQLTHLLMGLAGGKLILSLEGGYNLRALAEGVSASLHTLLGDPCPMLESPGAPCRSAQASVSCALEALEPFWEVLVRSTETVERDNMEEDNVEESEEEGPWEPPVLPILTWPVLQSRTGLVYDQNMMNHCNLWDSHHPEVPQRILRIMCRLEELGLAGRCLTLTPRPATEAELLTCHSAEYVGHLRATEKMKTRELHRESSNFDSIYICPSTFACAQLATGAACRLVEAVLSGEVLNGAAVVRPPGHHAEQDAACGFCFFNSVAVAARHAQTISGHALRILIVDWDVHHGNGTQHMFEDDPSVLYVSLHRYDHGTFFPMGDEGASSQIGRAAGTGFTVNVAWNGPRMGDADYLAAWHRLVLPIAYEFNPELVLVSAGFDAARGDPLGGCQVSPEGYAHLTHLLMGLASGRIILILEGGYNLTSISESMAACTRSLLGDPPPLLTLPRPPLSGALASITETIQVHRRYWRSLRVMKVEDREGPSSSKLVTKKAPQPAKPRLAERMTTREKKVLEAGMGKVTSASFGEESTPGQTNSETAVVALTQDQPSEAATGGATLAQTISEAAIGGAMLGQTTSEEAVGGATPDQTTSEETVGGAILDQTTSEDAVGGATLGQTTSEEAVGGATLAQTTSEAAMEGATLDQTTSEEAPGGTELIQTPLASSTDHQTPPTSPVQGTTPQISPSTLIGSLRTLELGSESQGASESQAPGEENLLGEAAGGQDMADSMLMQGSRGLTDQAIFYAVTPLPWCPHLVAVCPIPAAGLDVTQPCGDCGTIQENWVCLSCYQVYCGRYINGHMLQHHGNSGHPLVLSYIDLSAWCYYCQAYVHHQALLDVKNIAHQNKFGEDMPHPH
Protocol: The exemplary compounds of Formula I and structurally related compounds were synthesized to assess their structure-activity relationship. […] The IC50 values for each exemplary compound were used to calculate the selectivity of the exemplary compounds for Formula I to HDAC6. The selectivity of each exemplary compound for HDAC6 was determined from examining the potency of HDAC6 in relation to the highest binding affinity of the other HDAC isoforms tested.

[3] = system: MV-4-11; test: Cytotoxicity in cell lines; format: cell-based; conditions: read-out: IC50 MV-411
Protocol: as §1

[4] = Plasma stability by LC-MS; format: in vitro ADME; conditions: mouse plasma
Protocol: The stability of select compounds of the application in plasma was assessed quantitatively through LC-MS and the results are shown in Table 6.

Compound: O=C(NO)c1ccc(CN(Cc2ccc(F)cc2)S(=O)(=O)c2c(F)c(F)c(F)c(F)c2F)cc1 [Compound I-9, N-hydroxy-4-((2,3,4,5,6-pentafluoro-N-(4-fluorobenzyl)phenylsulfonamido)methyl)benzamide]
IC50 ([1]; Table 4): 5200 nM

IC50 [2]: 100 to 150 nM
Compound: O=C(Cc1ccc(CN(C2CC2)S(=O)(=O)c2cc(F)c(F)c(F)c2F)cc1)NO [Compound I-71, 2-(4-((N-cyclopropyl-2,3,4,5-tetrafluorophenylsulfonamido)methyl)phenyl)-N-hydroxyacetamide]

Compound: O=C(Cc1ccc(CN(C2CCCCC2)S(=O)(=O)c2cc(F)c(F)c(F)c2F)cc1)NO [Compound I-72]
IC50 ([3]; Homo sapiens, MV4-11, Table 5): 570 nM

Compound: O=C(/C=C/c1ccc(CN(Cc2ccc(F)cc2)S(=O)(=O)c2cc(F)c(F)c(F)c2F)cc1)NO [Compound I-68]
IC50 ([3]; Homo sapiens, MV4-11, Table 5): 800 nM

IC50 [2]: 10 to 30 nM
Compound: O=C(/C=C/c1ccc(CN(c2ccccc2)S(=O)(=O)c2cc(F)c(F)c(F)c2F)cc1)NO [Compound I-66, (E)-N-hydroxy-3-(4-((2,3,4,5-tetrafluoro-N-phenylphenylsulfonamido)methyl)phenyl)acrylamide]
IC50 ([3]; Homo sapiens, MV4-11, Table 5): 840 nM

IC50 [2]: 100 to 150 nM
Compound: CC(C)N(Cc1ccc(CC(=O)NO)cc1)S(=O)(=O)c1cc(F)c(F)c(F)c1F [Compound I-70, N-hydroxy-2-(4-((2,3,4,5-tetrafluoro-N-isopropylphenylsulfonamido)methyl)phenyl)acetamide]
IC50 ([3]; Homo sapiens, MV4-11, Table 5): 2500 nM

Compound: Cc1ccc(CN(Cc2ccc(CC(=O)NO)cc2)S(=O)(=O)c2cc(F)c(F)c(F)c2F)cc1F [Compound I-73]
IC50 ([3]; Homo sapiens, MV4-11, Table 5): 1090 nM

IC50 [2]: 10 to 30 nM
Compound: O=C(/C=C/c1ccc(CNC(=O)c2c(F)c(F)c(F)c(F)c2F)cc1)NO [Compound I-81, (E)-2,3,4,5,6-pentafluoro-N-(4-(3-(hydroxyamino)-3-oxoprop-1-en-1-yl)benzyl)benzamide]

Compound: Cc1ccc(CN(Cc2ccc(C(=O)NO)cc2)S(=O)(=O)c2cc(F)c(F)c(F)c2F)c(F)c1 [Compound I-26, N-hydroxy-4-((2,3,4,5-tetrafluoro-N-(2-fluoro-4-methylbenzyl)phenylsulfonamido)methyl)benzamide]
IC50 ([3]; Homo sapiens, MV4-11, Table 4): 1870 nM

Compound: COc1cc(/C=C/C(=O)NO)ccc1CN(Cc1cccnc1)S(=O)(=O)c1cc(F)c(F)c(F)c1F [Compound I-78]
IC50 ([3]; Homo sapiens, MV4-11, Table 5): 1300 nM
IC50 ([1]; Table 5): 2900 nM

Compound: O=C(NO)c1ccc(CN(Cc2ccc(C(F)(F)F)cc2)S(=O)(=O)c2c(F)c(F)c(F)c(F)c2F)cc1 [Compound I-10, N-hydroxy-4-((2,3,4,5,6-pentafluoro-N-(4-(trifluoromethyl)benzyl)phenylsulfonamido)methyl)benzamide]
IC50 ([1]; Table 4): 9100 nM

Compound: O=C(NO)c1ccc(CN(C2CC2)S(=O)(=O)c2c(F)cc(F)c(Cl)c2F)cc1 [Compound I-42, 4-((3-chloro-N-cyclopropyl-2,4,6-trifluorophenylsulfonamido)methyl)-N-hydroxybenzamide]
IC50 ([3]; Homo sapiens, MV4-11, Table 4): 741 nM

Compound: CN(Cc1ccc(C(=O)NO)cc1)S(=O)(=O)c1c(F)c(F)c(F)c(F)c1F [Compound I-2, N-hydroxy-4-((2,3,4,5,6-pentafluoro-N-methylphenylsulfonamido)methyl)benzamide]
IC50 ([3]; Homo sapiens, MV4-11, Table 4): 1040 nM

Compound: O=C(/C=C/c1ccc(CN(Cc2ccccc2)S(=O)(=O)c2cc(F)c(F)c(F)c2F)cc1)NO [Compound I-67]
IC50 ([3]; Homo sapiens, MV4-11, Table 5): 1140 nM

IC50 [2]: 30 to 50 nM
Compound: COc1ccc(CN(Cc2ccc(/C=C/C(=O)NO)cc2)S(=O)(=O)c2c(F)c(F)c(F)c(F)c2F)cc1 [Compound I-61, (E)-N-hydroxy-3-(4-((2,3,4,5,6-pentafluoro-N-(4-methoxybenzyl)phenylsulfonamido)methyl)phenyl)acrylamide]

IC50 [2]: 10 to 30 nM
Compound: CC(c1ccc(F)cc1)N(Cc1ccc(/C=C/C(=O)NO)cc1)S(=O)(=O)c1c(F)c(F)c(F)c(F)c1F (stereo not shown) [Compound I-60, (E)-N-hydroxy-3-(4-((2,3,4,5,6-pentafluoro-N-(1-(4-fluorophenyl)ethyl)phenylsulfonamido)methyl)phenyl)acrylamide]
IC50 ([3]; Homo sapiens, MV4-11, Table 5): 470 nM

Compound: O=C(NO)c1ccc(CN(C2CC2)S(=O)(=O)c2c(F)c(F)cc(F)c2F)cc1 [Compound I-14, 4-((N-cyclopropyl-2,3,5,6-tetrafluorophenylsulfonamido)methyl)-N-hydroxybenzamide]
IC50 ([3]; Homo sapiens, MV4-11, Table 4): 5700 nM

IC50 [2]: 150 to 200 nM
Compound: O=C(/C=C/c1ccc(CN(C2CCCC2)S(=O)(=O)c2cc(F)c(F)c(F)c2F)cc1)NO [Compound I-65, (E)-3-(4-((N-cyclopentyl-2,3,4,5-tetrafluorophenylsulfonamido)methyl)phenyl)-N-hydroxyacrylamide]
IC50 ([3]; Homo sapiens, MV4-11, Table 5): 2430 nM
IC50 ([3]; Table 5): 1940 nM

Compound: O=C(/C=C/c1ccc(CN(C(=O)c2c(F)c(F)c(F)c(F)c2F)C2CC2)cc1)NO [Compound I-83, (E)-N-cyclopropyl-2,3,4,5,6-pentafluoro-N-(4-(3-(hydroxyamino)-3-oxoprop-1-en-1-yl)benzyl)benzamide]
IC50 ([3]; Homo sapiens, MV4-11, Table 5): 750 nM

half-life [4]: 2.35 h
Remaining Percentage (%) 0 min [4]: 100%
Remaining Percentage (%) 15 min [4]: 88.6%
Remaining Percentage (%) 30 min [4]: 78.8%
Remaining Percentage (%) 45 min [4]: 75.0%
Remaining Percentage (%) 60 min [4]: 72.1%
Remaining Percentage (%) 120 min [4]: 53.8%
Compound: O=C(/C=C/c1cccc(S(=O)(=O)Nc2ccccc2)c1)NO [Belinostat]

Compound: O=C(NO)c1ccc(CN(Cc2ccccc2)S(=O)(=O)c2cc(F)c(F)c(F)c2F)cc1 [Compound I-16, 4-((N-benzyl-2,3,4,5-tetrafluorophenylsulfonamido)methyl)-N-hydroxybenzamide]
IC50 ([3]; Homo sapiens, MV4-11, Table 4): 190 nM

half-life [4]: 1.98 h
Remaining Percentage (%) 0 min [4]: 100%
Remaining Percentage (%) 15 min [4]: 98.6%
Remaining Percentage (%) 30 min [4]: 89.0%
Remaining Percentage (%) 45 min [4]: 74.9%
Remaining Percentage (%) 60 min [4]: 68.4%
Remaining Percentage (%) 120 min [4]: 52.1%
Compound: O=C(CCCCCCC(=O)Nc1ccccc1)NO [Vorinostat]

IC50 [2]: 10 to 30 nM
Compound: O=C(/C=C/c1ccc(CN(Cc2ccc(F)cc2)S(=O)(=O)c2c(F)c(F)c(F)c(F)c2F)cc1)NO [Compound I-59, (E)-N-hydroxy-3-(4-((2,3,4,5,6-pentafluoro-N-(4-fluorobenzyl)phenylsulfonamido)methyl)phenyl)acrylamide]
IC50 ([3]; Homo sapiens, MV4-11, Table 5): 590 nM

Compound: O=C(NO)c1ccc(CN(Cc2cc(F)c(F)c(F)c2)S(=O)(=O)c2c(F)c(F)c(F)c(F)c2F)cc1 [Compound I-11, N-hydroxy-4-((2,3,4,5,6-pentafluoro-N-(3,4,5-trifluorobenzyl)phenylsulfonamido)methyl)benzamide]
IC50 ([1]; Table 4): 3500 nM

Compound: O=C(NO)c1ccc(CN(Cc2ccccn2)S(=O)(=O)c2cc(F)c(F)c(F)c2F)cc1 [Compound I-20, N-hydroxy-4-((2,3,4,5-tetrafluoro-N-(pyridin-2-ylmethyl)phenylsulfonamido)methyl)benzamide]
IC50 ([3]; Homo sapiens, MV4-11, Table 4): 480 nM

Compound: CN(C)c1ccc(CN(Cc2ccc(/C=C/C(=O)NO)cc2)S(=O)(=O)c2cc(F)c(F)c(F)c2F)cc1 [Compound I-69]
IC50 ([3]; Homo sapiens, MV4-11, Table 5): 1600 nM
IC50 ([1]; Table 5): 1800 nM

Compound: O=C(NO)c1ccc(CN(Cc2ccc(F)nc2)S(=O)(=O)c2cc(F)c(F)c(F)c2F)cc1 [Compound I-27, N-hydroxy-4-((2,3,4,5-tetrafluoro-N-((6-fluoropyridin-3-yl)methyl)phenylsulfonamido)methyl)benzamide]
IC50 ([3]; Homo sapiens, MV4-11, Table 4): 843 nM

Compound: O=C(NO)c1ccc(CN(Cc2ccncc2F)S(=O)(=O)c2cc(F)c(F)c(F)c2F)cc1 [Compound I-28, N-hydroxy-4-((2,3,4,5-tetrafluoro-N-((3-fluoropyridin-4-yl)methyl)phenylsulfonamido)methyl)benzamide]
IC50 ([3]; Homo sapiens, MV4-11, Table 4): 596 nM
IC50 ([1]; Table 4): 663 nM
